What was measured:
[1] = brain to plasma ratio (rat); assay type: in vivo
Method: covered in Principles of Laboratory Animal Care (National Institutes of Health). All rats were fasted overnight prior to testing.
For determination of the brain over plasma ratio (Kp), compounds were formulated in 8% ethanol, 32% PEG400 and 60% DMSO (v/v/v) and administered as a single 0.2 mg/kg IV dose (1 mL/kg) to male, Sprague Dawley rats (n = 1) via injection into a surgically-implanted jugular vein catheter. At 15 min post dosing, blood sample was collected into chilled, K2EDTA anticoagulant-fortified tube and immediately placed on wet ice. The blood sample was then centrifuged (1700 rcf, 5 minutes, 4 °C) to obtain plasma sample. At the same post-administration time point, whole brain sample was obtained by rapid dissection, rinsed with PBS, and immediately frozen in individual tissue collection box (dry ice). All brain and plasma samples were stored at -80 °C until […]
Sample Analysis: Concentrations in plasma and brain homogenates were quantified by liquid chromatography tandem mass spectrometry (LC-MS/MS). Whole brains were homogenized in 3 mL of 70:30 IPA:water in a mini bead beater for 3 min, and centrifuged at 3,500 g for 5 min. 5 uL of the supernatant was diluted in 15 uL of blank plasma for quantification of the analytes. Plasma samples were centrifuged at 3,500 g for 5 min. […]
Plasma and brain tissue samples originating from in vivo studies were analyzed by electrospray ionization using an AB Sciex Q-TRAP 5500 (Foster City, CA) that was coupled to a Shimadzu LC-20AD pump (Columbia, MD) and a Leap Technologies CTC PAL auto-sampler (Carrboro, NC). […]
min, with an isocratic hold for 0.5 min, before transitioning to 10% B over 0.05 min. […] All data were analyzed using AB Sciex Analyst 1.5.1 software.
Brain plasma concentration ratio (Kp) was calculated by dividing brain concentration by plasma concentration for each animal. Unbound brain to unbound plasma concentration ratio (Kp,uu) is calculated using the following formula: Kp,uu = (Brain ng/g x brain fu)/(plasma ng/ml x plasma fu). […]

C57Bl/6 mice = assay: phenotypic seizure liability assay (Racine scale); assay type: in vivo, mouse
Method: min, with an isocratic hold for 0.5 min, before transitioning to 10% B over 0.05 min. The column was re-equilibrated (1 min) before the next sample injection. The total run time was 2.55 min, and the HPLC flow rate was 0.5 ml/min. The source temperature was set at 500 °C, and mass spectral analyses were performed using a Turbo-Ion spray source in positive ionization mode (5.0-kV spray voltage) and using multiple-reaction monitoring of transitions specific for the analytes. All data were analyzed using AB Sciex Analyst 1.5.1 software.
Brain plasma concentration ratio (Kp) was calculated by dividing brain concentration by plasma concentration for each animal. Unbound brain to unbound plasma concentration ratio (Kp,uu) is calculated using the following formula: Kp,uu = (Brain ng/g x brain fu)/(plasma ng/ml x plasma fu).
Pharmacokinetic profiles in rats following oral single escalating doses Single escalating oral dosing in Sprague-Dawley rats was performed at Frontage Laboratories according to their non-GLP Standard Operating Procedure and IACUC protocols. In short, compounds were formulated in 10% Tween 80 in water and dosed at 10 mg/kg. At different times, arterial blood was collected from a femoral artery catheter, and compound concentration was determined in plasma by LC-MS/MS following their non-GLP protocol. PK parameters were determined using Phoenix WinNonlin software (version 6.3). […]
Blood-brain barrier penetration was determined using MDR1-MDCK cell monolayers by Absorption Systems, following their protocol. […] Compounds concentration on either side of the monolayer was determined by LC-MS/MS and apparent permeability and efflux ratio were determined as described in Wang, Q. et al.1 […]
To evaluate induction of behavioral manifestation of seizure activity, C57Bl/6 mice received administration of vehicle or 100 mg/kg M1 PAM 5. […] Animals were monitored continuously and scored for behavioral manifestations of seizure activity at 5, 15, 30 min, and 1 h. Behavioral manifestations of seizures were scored using a modified Racine scoring system. […]

4 strain = assay: AMES assay (4 strain, with and without S9); assay type: cell-based

## Cn1cc2c(-c3cc(F)c(CN4Cc5ncccc5C4=O)c(F)c3)ccc(C(C)(C)O)c2n1 [compound 7]
[1]; brain:plasma
  Kp: 1.08
[1]; male, Sprague Dawley, brain and plasma, intravenous, 0.2 mg/kg, brain:plasma
  Kp at 15 min: 1.07
[1]; male, Sprague Dawley, brain and plasma, intravenous, 0.2 mg/kg, unbound brain:unbound plasma
  Kp uu at 15 min: 1.27
C57Bl/6 mice; 56.6 mg/kg IP, mice, result in words
  AEs in seizure liability assay: negligible AEs
C57Bl/6 mice; 100 mg/kg IP, mice
  Racine scale scores: less than 2
C57Bl/6 mice; 56.6 and 100 mg/kg, i.p., 360 min, male C57Bl/6 mice, result in words
  AEs in Racine score test: minimal AEs at 60 min postadministration with a lack of AEs observed at 6 h
4 strain
  AMES assay result: negative

Source: paper PMC12715762, “Discovery of VU6052254: A Novel, Potent M1 Positive Allosteric Modulator” (ACS Chemical Neuroscience, 2025)
